# Measurements as given in patent US20230263817A1, “HIGH DOSE NICOTINAMIDE ADENINE DINUCLEOTIDE (NAD) PRECURSOR REGIMENS FOR REDUCTION OF INFLAMMATION IN HUMAN PATIENTS WITH PREEXISTING INFLAMMATION” (University of Washington, priority 2021, published 2023).
# Entries after “also recorded” stand apart in the source; their conditions may differ.
# Experiments:
# [1] = tested on: NLRP3 and proinflammatory cytokine gene expressions in HF PBMCs; test: RT-qPCR of NLRP3 and cytokine mRNA in Stage D HF PBMCs treated in vitro with NR; format: cell-based, human; settings: 4-hour 1 mM NR vs vehicle
# Protocol: PBMC and Monocyte Culture. Freshly isolated PBMCs or Monocytes from healthy or HF subjects were resuspended with RPMI medium plus 10% heat inactivated FBS. PBMCs (10^6 cells/well) were seeded in Seahorse 24-well plates and incubated at 37° C. in CO2 incubator with various proinflammatory triggers (Vehicle, MitoDAMP, LPS) and compounds (NR, MCC 950, MitoTempo, or LMT-28). After 4 hours incubation, the plate was centrifuged at 40 g for 10 minutes at room temperature without application of the brake to help cells attach to the bottom of the plate. The cells were washed twice and then brought up to 500 μL using Seahorse base medium (Agilent Technologies, supplemented with 1 mM pyruvate, 2 mM glutamine, and 10 mM glucose, pH 7.4).
# IL6 ELISA. Isolated PBMCs (4×10^6 cells per sample) from healthy or HF participants were resuspended in RPMI medium containing 10% heat-inactivated FBS and treated with various proinflammatory triggers (Vehicle, MitoDAMP, LPS) and compounds (NR, MCC 950, MitoTempo, or LMT-28) to final PBMC concentrations of 10×10^6 cells per mL. See below for detailed descriptions of the reagents. […]
# RNA Isolation and Quantitative PCR analysis. […] Real-time PCR was performed in the Corbett rotor gene 6000 real-time PCR machine using iQ™ SYBR® Green Supermix (Bio-rad) and expression levels of the indicated genes were calculated using the ΔΔCt method.
# [2] = tested on: secreted IL6 protein of healthy PBMC; test: IL6 ELISA of supernatant of cultured healthy PBMCs; format: cell-based, human; settings: 4-hour 1 mM NR in the presence of MitoDAMP
# Protocol: IL6 ELISA. Isolated PBMCs (4×10^6 cells per sample) from healthy or HF participants were resuspended in RPMI medium containing 10% heat-inactivated FBS and treated with various proinflammatory triggers (Vehicle, MitoDAMP, LPS) and compounds (NR, MCC 950, MitoTempo, or LMT-28) to final PBMC concentrations of 10×10^6 cells per mL. See below for detailed descriptions of the reagents. The samples were incubated in Eppendorf tubes at 37° C. in a 5% CO2 incubator with caps open for times designated in the brief description of drawings. The cultured PBMC samples were centrifuged at 8,000 RPM at room temperature. The supernatant was used for ELISA per the manufacture protocol using R&D Systems human IL6 kit (Cat #DY206-05). The cell pellets were stored in −80° C.
# [3] = tested on: NLRP3 and cytokines mRNA of PBMC of Stage D HF subjects; test: PBMC NLRP3 and cytokine mRNA of Stage D HF patients pre- and post-oral NR; format: in vivo, human; settings: oral NR 5-9 days, post vs pre
# Protocol: For experiments associated with the oral NR administration (FIGS. 12C-12F), 5 hospitalized Stage D HF patients undergoing advanced heart failure therapy evaluations were put on escalating doses of NR (250 mg twice a day for Day 1, 500 mg twice a day for Day 2, and 1000 mg twice a day from Day 3 on) for 5-9 days. Fasting blood samples were obtained for PBMC isolation at baseline and post-NR administration. Subject 5 was withdrawn due to a change in clinical course deemed to be independent from NR administration.
# RNA Isolation and Quantitative PCR analysis. Total RNA was isolated from frozen PBMC pellets using Trizol (Invitrogen) per the manufacturer's instructions, and cDNA was synthesized using iScript™ Reverse Transcription Supermix (Bio-rad) per the manufacturer's instructions. Real-time PCR was performed in the Corbett rotor gene 6000 real-time PCR machine using iQ™ SYBR® Green Supermix (Bio-rad) and expression levels of the indicated genes were calculated using the ΔΔCt method.
# [4] = Randomized placebo-controlled 12-week trial of NR in clinically-stable HFrEF: safety and tolerability; format: in vivo, human
# Source text: The remaining 30 participants met all the prespecified inclusion criteria of: 1) Systolic HF (LVEF<40%, as determined by transthoracic echocardiogram) of non-ischemic or ischemic etiologies, 2) clinically stable (no cardiac procedures or hospitalizations for cardiac causes, including HF, ischemia or arrhythmia) within the prior 3 months, 3) ability to perform Study procedures (including study visits, blood draws and 6MWT), 4) willingness/ability to provide informed consent. None had any of the following exclusion criteria: 1) Heart failure with preserved ejection fraction (LVEF>40%), 2) HF etiologies other than non-ischemic or ischemic, 3) cardiac procedures, including, cardiac surgery, PCI, or cardiac device implantation, within the previous 3 months, 4) hospitalizations for cardiovascular causes, including HF, chest pain, stroke/TIA or arrhythmias within the prior 3 months, 5) inability to perform Study visits or procedures (e.g., physical inability to perform 6MWT), 6) unwillingness or inability to provide informed consent, 7) Alanine transaminase (ALT)>×3 upper limit of normal, hepatic insufficiency or active liver disease, 8) recent history of acute gout, 9) chronic renal insufficiency with serum creatinine ≥2.5 mg/dl, 10) pregnant or likely to become pregnant, 11) significant co-morbidity likely to cause death within 6 months, 12) significant history of active substance abuse within the previous 5 years, 13) current participation in a clinical trial of a study drug or intervention, and 14) prior intolerance to NR precursors, including niacin or nicotinamide. Follow-up was completed on all 30 participants. Study medication was discontinued in one participant due to gastrointestinal intolerance, but they completed all follow-up visits and procedures. The final participant refused to complete any study visits or procedures after the Week 0 (Randomization Visit), but their vital status was confirmed at the end of the Study. No participants were excluded from analysis, which followed the principal of intention-to-treat. The standardized method for characterizing adverse events employed in the UW Clinical Trials Unit is the Common Terminology Criteria for Adverse Events v3.0 (CTCAE). There were 18 protocol deviations.
# Study Design: The overall Study Design is depicted graphically in FIG. 15. Participant clinic visits, medication dispensing and data collection were performed on the Translational Research Unit (TRU) at the University of Washington (UW). […] History included assessment with the Minnesota Living with Heart Failure Questionnaire (MLHFQ), under license from the University of Minnesota (Minneapolis, Minn.).
# Participants were randomized to NR or placebo at a 2:1 allocation ratio by the University of Washington Investigational Drug Service, which assigned Study IDs and dispensed study medications.
# (§1) At Week 0 (Randomization), participants underwent history, repeat 6MWD assessment and baseline transthoracic echocardiogram (FIG. 15). NR or matching placebo were started at the initial dose of 250 mg orally twice daily, then up-titrated by 250 mg twice daily each week to a final dose of 1000 mg twice daily by Week 3. Participants were continued on the 1000 mg twice daily dose until the final clinic visit on Week 12. Blood draws for study labs, including levels of NR and NAD were obtained at Weeks 0, 2, 4 and 12. Medications were dispensed at Weeks 0, 2, 4 and 8, with pill counts performed at Weeks 2, 4, 8 and 12. A telephone visit was performed at Week 6. The final echocardiogram and PBMC mitochondrial respiration assays were performed at Week 12. Study labs were performed by the UW Research Testing Service, except for NR and NAD+ assays, which were performed by the Pharmacokinetics Laboratory, Department of Pharmaceutics, UW School of Pharmacy. Procedures for blood collection and processing, as well as NR and NAD+ assay procedures, have been described previously (Airhart S E, et al., PLoS One. 2017, 12:e0186459).
# [5] = Randomized trial of NR in HFrEF: whole blood NR and NAD+ levels; format: in vivo, human
# Protocol: as §1
structure (smiles),measurement,setting,value
"NC(=O)c1ccc[n+]([C@@H]2O[C@H](CO)[C@@H](O)[C@H]2O)c1 [NR, nicotinamide riboside]",reductions of NLRP3 and proinflammatory cytokine gene expressions,[1],minimal
same,IL6 secretion,[2],reduction
same,reduction of proinflammatory cytokine gene expressions,[3],up to 30 fold
same,total AEs reported on-trial,[4]; 20-participant NR group,63
same,"treatment-emergent laboratory abnormalities, NR vs placebo","[4]; HFrEF, 12 weeks",no significant differences
same,"treatment-emergent adverse events (AEs), NR vs placebo","[4]; HFrEF, up to 1000 mg twice daily, 12 weeks",no between-group differences
same,safety and tolerability,"[4]; dose up to 1000 mg twice daily, total treatment duration of 12 weeks",well-tolerated
same,out-of-range lab values,[4]; patients randomized to NR,creatinine greater than 1.5× but less than 3× baseline on 2 occasions in 1 patient
same,percentages of dispensed capsules taken (range),"[4]; returned pill counts, NR group",97 (91-100) %
same,"changes in whole blood NAD+ levels on-trial (Week 12-Week 0), Mean+SE",[5]; NR group,30 ± 20 µM
same,blood NAD+ levels during the up-titration period,"[5]; NR group, Week 0 to Week 4, maintained through Week 12",dose-dependent increase
same,whole blood NAD+ levels at 4 h post-dose vs pre-NR dose,"[5]; Week 4 visit, 1000 mg NR dose",unchanged
same,whole blood NR levels 4 h post-dose vs pre-dose,"[5]; Week 4 visit, 1000 mg NR dose",tended to increase; also recorded: rose significantly
same,whole blood NAD+ levels,"[5]; clinically-stable HF patients, NR treatment",doubled
same,concentration at 12 weeks,"[5]; human, whole blood, oral, 1000 mg twice daily, NR group, read-out: on-trial changes in whole blood NR levels (Week 12-Week 0), Mean±SE",2 nM
same,blood NR level before the daily dose was administered,"[5]; trough, throughout the study",low and variable
